Data on 1 substance can be found in patent US7494980B2, “Antimicrobial peptide and methods of use thereof” (The United States of America as represented by the …, priority 2003, dated 2009).

Holding throughout (assay): Bactericidal assay (log reduction in viable counts)
For experiment [1], the system named is S. mutans ATCC 25175. It counts as cell-based, Streptococcus mutans. From the text: (§1) Strains used in Examples 3-6 included ATCC and laboratory strains of different oral bacteria. These included: Actinomyces naeslundii strain T14V-J1, Actinomyces israelii ATCC 10049, Streptococcus mutans strains LT 11 and ATCC 25175, Streptococcus sobrinus ATCC 33478, Streptococcus gordonii strains DL1 and ATCC 51656, Streptococcus sanguis strains SK36 and ATCC 10556, Streptococcus salivarius ATCC 9222, Streptococcus oralis strains 34 and ATCC 35037, Lactobacillus salivarius ATCC 29602, Lactobacillus acidophilus ATCC 4357, and Actinobacillus actinomycetemcomitans ATCC 43718. S. mutans strain LT 11 was kindly provided by Lin Tao, University of Illinois at Chicago, Ill. S. gordonii DLI, S. sanguis SK36, and S. oralis 34 were provided by John Cisar, National Institute of Dental and Craniofacial Research, NIH, Bethesda, Md.
(§2) The bactericidal assay was performed according to procedures described by Miyasaki et al. (1997, 1998) with a slight modification. […] Susceptibility was determined by examining the log reduction in viability counts of organisms that had been exposed to different concentrations of KSL. […] Bactericidal activity was also expressed as the 99% effective dose (ED99), which is the concentration of the antimicrobial decapeptide at which there is a 2-log or more reduction in c.f.u. […]
(§3) In addition to the determinations of MICs and MBCs of KSL, log reductions in viable counts of selected oral bacteria caused by KSL were also determined. […] With the exception of Actinobacillus actinomycetemcomitans, for which the assays were performed in 0.01% BHI, bactericidal action of KSL was determined in isotonic HBSS after incubation with the targeted bacteria for 1 h at 37° C. KSL at 6.25 μg ml^−1, which was determined to be the 99% effective dose (ED99), caused more than 2 log reductions in viable counts of the organisms tested, which included L. salivarius ATCC 29602 (FIG. 3a), S. mutans ATCC 25175^T (FIG. 3b), S. gordonii ATCC 51656 (FIG. 3c), and Actinobacillus actinomycetemcomitans ATCC 43718 (FIG. 3d).

For experiment [2], the system named is Actinobacillus actinomycetemcomitans ATCC 43718. The class given is cell-based.
From the text: as §1, §2, §3

Experiment [3] has as its system L. salivarius ATCC 29602. The class given is cell-based, Lactobacillus salivarius.
From the text: as §1, §2, §3

Ends that are not written are not given here.

With “KKVVFKVKFK-NH2 [KSL, lys-lys-val-val-phe-lys-val-lys-phe-lys]”, the “log reduction in viable counts” value in experiment [1] (6.25 μg ml^−1, HBSS, FIG. 3b) is recorded as “more than 2 log”; in experiment [2] (6.25 μg ml^−1, 0.01% BHI, FIG. 3d), “more than 2 log”; in experiment [3] (6.25 μg ml^−1, HBSS, FIG. 3a) it was “more than 2 log”. Moreover, the reduction in viability in experiment [1] (concentrations of <10 μg ml^−1), in experiment [2] (concentrations of <10 μg ml^−1) and in experiment [3] (concentrations of <10 μg ml^−1) was > 3 logs in each case. For the same substance, the “ED99 (99% effective dose)” value in experiment [1] (isotonic HBSS, 1 h at 37° C.) came to 6.25 µg/mL; in experiment [2] (0.01% BHI, 1 h at 37° C.) it was 6.25 µg/mL; in experiment [3] (isotonic HBSS, 1 h at 37° C.), 6.25 µg/mL.
